Values quoted from earlier work as cited in patent US8623415B2, “Method for producing biologically ingestible microparticles, biologically ingestible microparticles, and dispersion and pharmaceutical composition containing the same” (M. Technique Co., Ltd., priority 2007, dated 2014).
Where two headings read alike, the source gives them in different places.

Tests used:
[1] = dissolved in an aqueous solution of pH 6 or higher

| stability in aqueous solution [1] | biological availability (BA) (commercial product (average particle diameter 10 μm) administered to a dog as a suspension) | biological availability (BA) (nano-suspension, average particle diameter 169 nm, dog) | Compound |
| --- | --- | --- | --- |
| hydrolyzed | – | – | O=C(O)c1cc(O)c2c3nc4ccccc4oc-3cc(=O)c2n1 [pirenoxine] |
| – | 5.1% | 82.3% | C#C[C@]1(O)CC[C@H]2[C@@H]3CCC4=Cc5oncc5C[C@]4(C)[C@H]3CC[C@@]21C [danazol, 17-α-pregno-2,4-diene-20-ino-[2,3-d]-isoxazol-17-ol (danazol)] |
